Measured values as given in patent US9120812B2, “Pyrimidooxazocine derivatives as mTOR-inhibitors” (SANOFI, priority 2012, dated 2015).

Tests used:
[1] = system: Akt-pS473 in U87MG cells; conditions: Homo sapiens, U-87 MG, read-out: U87 Akt-pS473 % Inhibition or IC50, nM (IC50), U87MG cells
[2] = target: mTOR (human recombinant aa mTOR 1360-2549) (Homo sapiens (Human), UniProt P42345); assay: mTOR enzymatic test by TR-FRET (phosphorylation of GFP-4EBP1); assay type: biochemical
How it was run: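 After a 30 min room-temperature kinase reaction, EDTA (10 mM final) and Tb-labelled phospho-Thr46 antibody (2 nM final) were added and incubated 60 min. Energy transfer from Tb to phosphorylated GFP-4EBP1 was read at 340 nm excitation, emissions 490/520 nm. Values derive from the 520/490 fluorescence ratio.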

[3] = target: PI3Kα (p110α/p85α) (Homo sapiens (Human), UniProt P42336); assay: PI3Kα enzymatic test by measuring the consumption of ATP; assay type: biochemical
How it was run: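 ATP consumption read out by KinaseGlo luminescence after a 90 min reaction of 1.7 μg/ml PI3Kα (p110α/p85α) with 2 μM ATP and 50 μM PIP2, buffered at pH 7.5 (Tris, 10 mM MgCl2, 1 mM EGTA, 0.03% Chaps, 1 mM DTT). Threefold dilution series over ≥10 000-fold range yield IC50.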

[4] = system: U87MG tumour cells; assay: Test of in vitro proliferation of U87MG tumour cells; assay type: cell-based; conditions: Homo sapiens, U-87 MG, 72 h, U87MG cells, 72 hours; read-out: U87 Cell Proliferation IC50
Experimental: Model 4: Test of in vitro Proliferation of U87MG Tumour Cells.
The cell growth is determined with the reagent CellTiter 96 AQueous One Solution Cell Proliferation Assay from Promega (Cat. No. G3581).

mTOR (human recombinant aa mTOR 1360-2549), sequence (P42345 1360-2549): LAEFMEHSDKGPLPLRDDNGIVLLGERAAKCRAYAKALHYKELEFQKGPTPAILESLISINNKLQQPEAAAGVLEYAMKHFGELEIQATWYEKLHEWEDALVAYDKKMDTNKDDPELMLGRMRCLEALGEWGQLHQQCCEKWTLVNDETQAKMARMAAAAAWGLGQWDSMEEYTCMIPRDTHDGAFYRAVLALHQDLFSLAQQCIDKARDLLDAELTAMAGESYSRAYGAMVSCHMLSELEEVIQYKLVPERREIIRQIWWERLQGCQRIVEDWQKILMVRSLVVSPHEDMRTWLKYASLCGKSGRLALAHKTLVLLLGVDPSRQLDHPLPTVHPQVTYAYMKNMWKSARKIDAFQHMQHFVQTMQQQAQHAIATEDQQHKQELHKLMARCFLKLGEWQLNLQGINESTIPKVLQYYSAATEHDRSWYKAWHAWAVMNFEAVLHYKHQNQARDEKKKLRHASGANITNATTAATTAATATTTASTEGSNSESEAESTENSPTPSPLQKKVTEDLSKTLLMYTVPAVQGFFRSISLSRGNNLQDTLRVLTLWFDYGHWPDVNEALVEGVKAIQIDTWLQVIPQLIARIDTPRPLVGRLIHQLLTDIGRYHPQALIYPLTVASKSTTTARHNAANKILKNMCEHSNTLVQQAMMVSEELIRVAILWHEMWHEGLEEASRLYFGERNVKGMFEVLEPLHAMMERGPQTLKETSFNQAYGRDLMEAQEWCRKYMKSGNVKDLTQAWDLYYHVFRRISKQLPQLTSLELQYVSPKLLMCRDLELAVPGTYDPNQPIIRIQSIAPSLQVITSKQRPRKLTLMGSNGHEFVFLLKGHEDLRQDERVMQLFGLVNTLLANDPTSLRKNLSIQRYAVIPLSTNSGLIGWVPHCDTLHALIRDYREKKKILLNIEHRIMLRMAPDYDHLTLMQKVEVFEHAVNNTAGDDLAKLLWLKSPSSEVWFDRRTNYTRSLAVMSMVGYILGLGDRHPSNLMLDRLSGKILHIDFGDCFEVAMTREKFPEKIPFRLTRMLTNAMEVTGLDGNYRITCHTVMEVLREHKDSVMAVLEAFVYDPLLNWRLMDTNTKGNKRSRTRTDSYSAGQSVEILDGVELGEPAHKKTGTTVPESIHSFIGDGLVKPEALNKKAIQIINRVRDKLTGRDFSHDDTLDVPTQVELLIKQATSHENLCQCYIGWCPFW
PI3Kα (p110α/p85α), sequence (P42336 whole entry): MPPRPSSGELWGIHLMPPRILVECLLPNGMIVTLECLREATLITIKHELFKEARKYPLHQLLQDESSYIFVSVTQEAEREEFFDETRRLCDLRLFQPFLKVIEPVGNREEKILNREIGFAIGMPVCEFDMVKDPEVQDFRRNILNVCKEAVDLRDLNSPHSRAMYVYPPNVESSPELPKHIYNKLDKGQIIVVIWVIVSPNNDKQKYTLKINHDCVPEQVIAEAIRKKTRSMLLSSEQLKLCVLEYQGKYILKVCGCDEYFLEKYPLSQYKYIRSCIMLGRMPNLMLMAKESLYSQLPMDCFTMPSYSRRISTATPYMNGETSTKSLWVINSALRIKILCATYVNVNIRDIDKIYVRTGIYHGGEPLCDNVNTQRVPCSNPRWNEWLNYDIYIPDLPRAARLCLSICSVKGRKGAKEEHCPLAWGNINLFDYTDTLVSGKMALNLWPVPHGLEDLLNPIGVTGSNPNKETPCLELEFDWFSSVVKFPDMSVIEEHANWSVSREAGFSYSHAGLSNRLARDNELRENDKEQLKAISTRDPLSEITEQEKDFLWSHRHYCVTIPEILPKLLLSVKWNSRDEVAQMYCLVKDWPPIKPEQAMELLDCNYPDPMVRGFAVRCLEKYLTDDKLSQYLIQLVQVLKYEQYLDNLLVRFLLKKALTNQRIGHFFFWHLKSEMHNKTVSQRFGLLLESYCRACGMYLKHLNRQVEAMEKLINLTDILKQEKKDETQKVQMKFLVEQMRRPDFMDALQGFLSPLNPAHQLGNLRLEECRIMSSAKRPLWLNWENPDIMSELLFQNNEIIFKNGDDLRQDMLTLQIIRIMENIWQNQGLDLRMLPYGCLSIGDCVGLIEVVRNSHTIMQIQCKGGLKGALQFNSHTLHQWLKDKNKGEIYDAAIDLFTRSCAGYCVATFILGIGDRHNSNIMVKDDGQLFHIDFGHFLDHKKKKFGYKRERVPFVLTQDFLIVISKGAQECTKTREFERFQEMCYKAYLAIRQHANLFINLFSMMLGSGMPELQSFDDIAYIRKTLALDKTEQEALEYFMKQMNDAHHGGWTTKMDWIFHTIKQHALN
PI3Kα (p110α/p85α), sequence (P27986 whole entry partner): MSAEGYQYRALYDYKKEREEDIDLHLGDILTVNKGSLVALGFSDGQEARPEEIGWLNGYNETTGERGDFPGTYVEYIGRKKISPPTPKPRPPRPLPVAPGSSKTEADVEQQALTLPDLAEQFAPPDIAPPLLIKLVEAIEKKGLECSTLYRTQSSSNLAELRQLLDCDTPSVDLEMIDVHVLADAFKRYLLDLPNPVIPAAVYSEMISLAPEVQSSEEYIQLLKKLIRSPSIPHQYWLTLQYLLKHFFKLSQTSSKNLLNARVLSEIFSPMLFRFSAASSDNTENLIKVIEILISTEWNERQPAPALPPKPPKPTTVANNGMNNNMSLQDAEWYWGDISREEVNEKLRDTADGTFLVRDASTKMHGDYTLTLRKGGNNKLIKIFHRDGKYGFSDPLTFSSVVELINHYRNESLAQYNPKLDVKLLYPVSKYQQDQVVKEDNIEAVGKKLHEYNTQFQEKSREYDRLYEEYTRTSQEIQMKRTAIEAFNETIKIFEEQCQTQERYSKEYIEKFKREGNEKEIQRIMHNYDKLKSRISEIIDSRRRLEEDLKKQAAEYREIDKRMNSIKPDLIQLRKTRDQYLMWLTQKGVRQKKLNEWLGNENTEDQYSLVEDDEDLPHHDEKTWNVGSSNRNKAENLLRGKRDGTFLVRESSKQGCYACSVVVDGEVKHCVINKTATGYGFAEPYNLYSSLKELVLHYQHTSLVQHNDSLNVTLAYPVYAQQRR

SMILES: CCN1CC(C)(C)Oc2nc(N3CC4CCC(C3)O4)nc(-c3ccc(NC(=O)Nc4ccc(N5CC6CCC(C5)O6)cn4)cc3)c2C1=O [Example 251, 1-{4-[6-Ethyl-8,8-dimethyl-2-(8-oxa-3-azabicyclo[3.2.1]oct-3-yl)-5-oxo-5,6,7,8-tetrahydro-9-oxa-1,3,6-triazabenzocyclohepten-4-yl]phenyl}-3-[5-(8-oxa-3-azabicyclo[3.2.1]oct-3-yl)pyridin-2-yl]urea]
- IC50 [1]: 80 nM
- IC50 [2]: 64 nM
- PI3Ka IC50 [3]: >10000 nM
- IC50 [4]: 340 nM

SMILES: CCN1CC(C)(C)Oc2nc(N3CCOC[C@@H]3C)nc(-c3ccc(NC(=O)Nc4ccc(N5C[C@@H]6C[C@H]5CO6)nc4)c(F)c3)c2C1=O [Example 252, 1-{4-[6-Ethyl-8,8-dimethyl-2-((S)-3-methylmorpholin-4-yl)-5-oxo-5,6,7,8-tetrahydro-9-oxa-1,3,6-triazabenzocyclohepten-4-yl]-2-fluorophenyl}-3-[(1S,4S)-6-(2-oxa-5-azabicyclo[2.2.1]hept-5-yl)pyridin-3-yl]urea]
- IC50 [1]: 48 nM
- IC50 [2]: 68 nM
- PI3Ka IC50 [3]: 1360 nM
- IC50 [4]: 282 nM

SMILES: CCN1CC(C)(C)Oc2nc(N3C4CCC3COC4)nc(-c3ccc(NC(=O)Nc4ccc(N5C[C@@H]6C[C@H]5CO6)nc4)c(F)c3)c2C1=O [Example 253, 1-{4-[6-Ethyl-8,8-dimethyl-2-(3-oxa-8-azabicyclo[3.2.1]oct-8-yl)-5-oxo-5,6,7,8-tetrahydro-9-oxa-1,3,6-triazabenzocyclohepten-4-yl]-2-fluorophenyl}-3-[(1S,4S)-6-(2-oxa-5-azabicyclo[2.2.1]hept-5-yl)pyridin-3-yl]urea]
- IC50 [1]: 68 nM
- IC50 [2]: 72 nM
- PI3Ka IC50 [3]: >10000 nM
- IC50 [4]: 167 nM

SMILES: CCN1CC(C)(C)Oc2nc(N3C4CCC3COC4)nc(-c3ccc(NC(=O)NC4CC4)c(F)c3)c2C1=O [Example 254, 1-Cyclopropyl-3-{4-[6-ethyl-8,8-dimethyl-2-(3-oxa-8-azabicyclo[3.2.1]oct-8-yl)-5-oxo-5,6,7,8-tetrahydro-9-oxa-1,3,6-triazabenzocyclohepten-4-yl]-2-fluorophenyl}urea]
- IC50 [1]: 68 nM
- IC50 [2]: 68 nM
- PI3Ka IC50 [3]: >10000 nM
- IC50 [4]: 240 nM

SMILES: CCNC(=O)Nc1ccc(-c2nc(N3C4CCC3COC4)nc3c2C(=O)N(CC)CC(C)(C)O3)cc1F [Example 255, 1-Ethyl-3-{4-[6-ethyl-8,8-dimethyl-2-(3-oxa-8-azabicyclo[3.2.1]oct-8-yl)-5-oxo-5,6,7,8-tetrahydro-9-oxa-1,3,6-triazabenzocyclohepten-4-yl]-2-fluorophenyl}urea]
- IC50 [1]: 68 nM
- IC50 [2]: 72 nM
- PI3Ka IC50 [3]: >10000 nM
- IC50 [4]: 210 nM

SMILES: CCN1CC(C)(C)Oc2nc(N3CCOC[C@@H]3C)nc(-c3ccc(NC(=O)Nc4ccc(N5CCOCC5(C)C)nc4)c(F)c3)c2C1=O [Example 256, 1-[6-(3,3-Dimethylmorpholin-4-yl)pyridin-3-yl]-3-{4-[6-ethyl-8,8-dimethyl-2-((S)-3-methylmorpholin-4-yl)-5-oxo-5,6,7,8-tetrahydro-9-oxa-1,3,6-triazabenzocyclohepten-4-yl]-2-fluorophenyl}urea]
- IC50 [1]: 42 nM
- IC50 [2]: 196 nM
- PI3Ka IC50 [3]: 199 nM
- IC50 [4]: 83 nM

SMILES: CCN1CC(C)(C)Oc2nc(N3C4CCC3COC4)nc(-c3ccc(NC(=O)Nc4ccc(N5CCOCC5(C)C)nc4)c(F)c3)c2C1=O [Example 257, 1-[6-(3,3-Dimethylmorpholin-4-yl)pyridin-3-yl]-3-{4-[6-ethyl-8,8-dimethyl-2-(3-oxa-8-azabicyclo[3.2.1]oct-8-yl)-5-oxo-5,6,7,8-tetrahydro-9-oxa-1,3,6-triazabenzocyclohepten-4-yl]-2-fluorophenyl}urea]
- IC50 [1]: 46 nM
- IC50 [2]: 142 nM
- PI3Ka IC50 [3]: >10000 nM
- IC50 [4]: 63 nM

SMILES: CCN1CC(C)(C)Oc2nc(N3CCOC[C@@H]3C)nc(-c3ccc(NC(=O)Nc4ccc(N5CC6CCC(C5)O6)nc4)c(F)c3)c2C1=O [Example 258, 1-{4-[6-Ethyl-8,8-dimethyl-2-((S)-3-methylmorpholin-4-yl)-5-oxo-5,6,7,8-tetrahydro-9-oxa-1,3,6-triazabenzocyclohepten-4-yl]-2-fluorophenyl}-3-[6-(8-oxa-3-azabicyclo[3.2.1]oct-3-yl)pyridin-3-yl]urea]
- IC50 [1]: 20 nM
- IC50 [2]: 53 nM
- PI3Ka IC50 [3]: 2940 nM
- IC50 [4]: 125 nM

SMILES: CCN1CC(C)(C)Oc2nc(N3C4CCC3COC4)nc(-c3ccc(NC(=O)Nc4ccc(N5CC6CCC(C5)O6)nc4)c(F)c3)c2C1=O [Example 259, 1-{4-[6-Ethyl-8,8-dimethyl-2-(3-oxa-8-azabicyclo[3.2.1]oct-8-yl)-5-oxo-5,6,7,8-tetrahydro-9-oxa-1,3,6-triazabenzocyclohepten-4-yl]-2-fluorophenyl}-3-[6-(8-oxa-3-azabicyclo[3.2.1]oct-3-yl)pyridin-3-yl]urea]
- IC50 [1]: 16 nM
- IC50 [2]: 87 nM
- PI3Ka IC50 [3]: >10000 nM
- IC50 [4]: 87 nM

SMILES: CCN1CC(C)(C)Oc2nc(N3CC4CCC(C3)O4)nc(-c3ccc(NC(=O)Nc4ccnc(N5CC6CCC(C5)O6)c4)c(F)c3)c2C1=O [Example 260, 1-{4-[6-Ethyl-8,8-dimethyl-2-(8-oxa-3-azabicyclo[3.2.1]oct-3-yl)-5-oxo-5,6,7,8-tetrahydro-9-oxa-1,3,6-triazabenzocyclohepten-4-yl]-2-fluorophenyl}-3-[2-(8-oxa-3-azabicyclo[3.2.1]oct-3-yl)pyridin-4-yl]urea]
- IC50 [1]: 24 nM
- IC50 [2]: 174 nM
- PI3Ka IC50 [3]: >10000 nM
- IC50 [4]: 95 nM
